{"source": "patent US12279600B2", "about": "“Genetically modified sterile avians and method for the reconstitution thereof” (The University Court of the University of Edinburgh, priority 2018, dated 2025)", "key": {"[1]": {"molecular_target": "FKBP12F36V (Homo sapiens, UniProt P62942, F37V)", "sequence (P62942 whole entry F37V)": "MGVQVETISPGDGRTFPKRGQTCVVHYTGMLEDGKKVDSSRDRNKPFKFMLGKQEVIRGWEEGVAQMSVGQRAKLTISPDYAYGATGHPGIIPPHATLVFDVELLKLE", "conditions": "cited from earlier work"}, "[2]": {"test_system": "endogenous FKBPs", "conditions": "cited from earlier work"}, "[3]": {"test_system": "PGCs containing the targeted icaspase9 gene", "assay": "PGC culture with dimerization molecule B/B, total cell number after 10 days", "type": "cell-based, chicken", "protocol": "FIG. 6 500 PGCs (dazl-GFP, dazl-human-Caspase or dazl-chicken-Caspase) were cultured in the presence or absence of the dimerization molecule B/B. After 10 days the total cell number was counted for each well. N=6 for each data point, from three independent experiments.\nFIG. 22 500 PGCs (dazl-GFP, dazl-iCaspase, dazl-aviCaspase, ddx4-iCaspase9) were cultured in the presence or absence of the dimerization molecule B/B. After 10 days the total cell number was counted for each well. N=2 for each data point.\nPGCs containing the targeted icaspase9 gene were treated with the B/B dimerization compound. […] These cells were mixed with control red fluorescent PGCs and injected into chicken embryos. The chicken embryos were treated with the B/B dimerization compound. Only red PGCs and control GFP PGCs were visible in the embryos. Dazl icaspase9 PGCs were killed (FIG. 7).\nThe iCaspase9 trasgene was targeted to either the DDX4 or the DAZL locus in PGCs and the cells were then exposed to the dimerisation drug. Cells containing the transgene inserted at the DAZL locus were determined to be inhibited/killed. Without wishing to be bound by theory, the inventors consider the expression levels at embryonic stages are important for ablating germ cells."}, "[4]": {"test_system": "DAZL-iCasp9 targeted PGCs", "assay": "Ablation of injected DAZL-iCasp9 targeted PGCs in embryos treated with B/B", "type": "in vivo, chicken", "conditions": "stage HH 16 embryos, 25 nM B/B, gonads viewed at 8 days; FIG. 7", "protocol": "Stage HH 16 embryos were injected with 3500 PGCs transfected with CRISPR reagents to insert an inducible caspase gene and GFP at the dazl locus, and 3500 PGCs transfected with a transposon to insert a cassette for TdTomato expression randomly in the genome. After injection, embryos were dosed with 50 μl of 1× Pen/Strep with or without 25 nM of the dimeriser drug B/B. At 8 days of development, gonads were dissected and viewed under fluorescence. Images are representative of three independent injections for each treatment.\nPGCs containing the targeted icaspase9 gene were treated with the B/B dimerization compound. […] These cells were mixed with control red fluorescent PGCs and injected into chicken embryos. The chicken embryos were treated with the B/B dimerization compound."}, "[5]": {"test_system": "germ cells", "assay": "Germ cell ablation in G2 Dazl-iCaspase9 and Dazl-aviCaspase9 embryos after B/B injection", "type": "in vivo, chicken", "conditions": "FIG. 11", "protocol": "B/B was injected into the dorsal aorta of stage 16 chicken embryos (day 2.5). Embryos were incubated and examined at day 10 for GFP fluorescence and DDX4 expression. Left panels; GFP fluorescence in B/B injected iCaspase9 and aviCaspase9 embryos. Right panels: immunofluorescence for DDX4 protein (red).\nThe G1 Dazl-icaspase9 and Dazl-aviCaspase9 chickens were raised to sexual maturity and mated with wildtype chickens. Fertile eggs from the matings (G2 embryos) were incubated and examined for GFP expression in the gonads. The germ cells in the gonads of both Dazl-icaspase9 and Dazl-avicaspase9 G2 embryos contained GFP+ cells in the gonad (FIG. 9). […] The G2 embryos were tested for germ cell ablation. 1.0 μl of 0.1 mM B/B dimerization reagent (Takara Bio, Inc) was injected into the bloodstream of day 2.5 (stage 16 Hamilton & Hamburger (HH)) chicken embryos. The embryos were incubated for 8 days, PCR-screened to identify iCaspase9 embryos and examined for GFP expression in the gonads. […] Embryos were incubated for 8 days and examined for florescence and germ cells. […] (FIG. 12)."}, "[6]": {"test_system": "endogenous (host) germ cells", "assay": "Host germ cell ablation and donor PGC colonisation in Dazl-aviCaspase9 G2 embryos with B/B", "type": "in vivo, chicken", "conditions": "Dazl-aviCaspase9 G2 embryos injected with donor TdTomato PGCs and B/B, examined at day 10; FIG. 12", "protocol": "FIG. 12 B/B drug treatment of aviCaspase9 transgenic embryos ablates host germ cells and permits transplanted donor cells to populate the host gonad. Stage HH 16 embryos containing the aviCaspase9 transgene targeted to the DAZL locus, were injected with 200 donor PGCs transfected with a transposon to insert a cassette for TdTomato expression randomly in the genome. Injected cells were in 1 μl of solution containing 0.5 mM (final concentration) B/B dimerization drug. After injection, eggs were dosed with 50 μl of 1× Pen/Strep containing 15 μM (final concentration) B/B dimeriser drug and incubated for 8 days. At 10 days of development, gonads were dissected and viewed under fluorescence.\nThe G1 Dazl-icaspase9 and Dazl-aviCaspase9 chickens were raised to sexual maturity and mated with wildtype chickens. Fertile eggs from the matings (G2 embryos) were incubated and examined for GFP expression in the gonads. The germ cells in the gonads of both Dazl-icaspase9 and Dazl-avicaspase9 G2 embryos contained GFP+ cells in the gonad (FIG. 9). […] The G2 embryos were tested for germ cell ablation. 1.0 μl of 0.1 mM B/B dimerization reagent (Takara Bio, Inc) was injected into the bloodstream of day 2.5 (stage 16 Hamilton & Hamburger (HH)) chicken embryos. The embryos were incubated for 8 days, PCR-screened to identify iCaspase9 embryos and examined for GFP expression in the gonads. […]"}, "[7]": {"test_system": "host germ cells", "assay": "Offspring from Dazl-Caspase9 hosts injected with Silkie donor PGCs and B/B", "type": "in vivo, chicken", "conditions": "Dazl-Caspase9 hosts injected with black skinned Silkie PGCs; FIG. 23", "protocol": "FIG. 23 illustrates the use of caspase9 host ablation using black skinned silkie chicken donor PGCs injected into the iCaspase9 surrogate host embyros which are hatched and bred to produce pure offspring. […] (A-C) The offspring (embryos and chicks) have black skins indicating they came from the donor germ cells.\nUtilising caspase 9 expression targeted to the DAZL locus in PGCs, host germ cell ablation and producing offspring from a donor chicken breed were tested using chicken donor PGCs from a black skinned silkie chicken breed. Donor PGCs injected into the caspase host embryos which were then raised to sexual maturity and bred were tested.\nIn more detail, in this embodiment, black skinned Silkie PGCs were mixed with B/B dimerisation drug and injected into Dazl-Caspase host embryos whilst in the egg. The eggs were sealed and the embryos were hatched then crossed to each other when sexual mature.\n50% of offspring should be GFP positive if derived from the endogenous GFP+ caspase9 host PGCs."}, "[8]": {"test_system": "PGCs containing the targeted nitroreductase gene", "assay": "PGC culture with nitroreductase pro-drug CB1954, total cell number after 10 days", "type": "cell-based, chicken", "protocol": "FIG. 5 500 PGCs (Control, CAG-NTR or Dazl-NTR) were cultured in the presence or absence of the nitroreductase pro-drug CB1954 (n=2 for each concentration of pro-drug). After 10 days the total cell number was counted for each well. N=6 for each data point, from three independent experiments.\nPGCs containing the targeted nitroreductase gene were treated with the pro-drug CB1954. PGCs died when exposed to the drug."}}, "note": "Entries after “also recorded” stand apart in the source; their conditions may differ.", "data": [{"smiles": "CC[C@H](C(=O)N1CCCC[C@H]1C(=O)O[C@H](CCc1ccc(OC)c(OC)c1)c1cccc(OCC(=O)NCCNC(=O)COc2cccc([C@@H](CCc3ccc(OC)c(OC)c3)OC(=O)[C@@H]3CCCCN3C(=O)[C@@H](CC)c3cc(OC)c(OC)c(OC)c3)c2)c1)c1cc(OC)c(OC)c(OC)c1", "note": "[AP1903]", "values": [{"measurement": "affinity and selectivity for FKBP12F36V", "setting": "[1]", "value": "high affinity and selectivity"}, {"measurement": "interaction with endogenous FKBPs", "setting": "[2]", "value": "minimal interaction"}]}, {"smiles": "CC[C@H](C(=O)N1CCCC[C@H]1C(=O)O[C@H](CCc1ccc(OC)c(OC)c1)c1cccc(OCC(=O)NCC(CNC(=O)COc2cccc([C@@H](CCc3ccc(OC)c(OC)c3)OC(=O)[C@@H]3CCCCN3C(=O)[C@@H](CC)c3cc(OC)c(OC)c(OC)c3)c2)CN(C)C)c1)c1cc(OC)c(OC)c(OC)c1", "note": "[B/B, AP20187]", "values": [{"measurement": "PGC number", "setting": "[3]; control untargeted PGCs", "value": "did not have reduced numbers of PGCs"}, {"measurement": "PGC number", "setting": "[3]; human and chicken caspase9 genes targeted to the dazl locus, FIG. 6", "value": "severely reduced PGC numbers"}, {"measurement": "PGC number", "setting": "[3]; iCaspase 9 targeted to the ddx4 locus", "value": "slightly less PGC number"}, {"measurement": "effect on cells with iCaspase9 transgene", "setting": "[3]; transgene inserted at the DAZL locus, FIG. 22", "value": "inhibited/killed"}, {"measurement": "fate of injected Dazl icaspase9 PGCs in embryos", "setting": "[4]", "value": "killed; also recorded: ablates"}, {"measurement": "GFP expression in the gonads", "setting": "[5]; 1.0 μl of 0.1 mM injected at day 2.5, incubated 8 days", "value": "no visible GFP expression"}, {"measurement": "DDX4 positive or GFP+ germ cells in the gonads", "setting": "[5]; cryosections and DDX4 immuno-staining", "value": "almost no identifiable DDX4 positive or GFP+ cells are present; also recorded: no germ cells"}, {"measurement": "endogenous (host) germ cells in the gonad", "setting": "[6]", "value": "no endogenous (host) germ cells were detected"}, {"measurement": "skin phenotype of offspring (donor origin)", "setting": "[7]", "value": "black skin"}, {"measurement": "affinity and selectivity for FKBP12F36V", "setting": "[1]", "value": "high affinity and selectivity"}, {"measurement": "interaction with endogenous FKBPs", "setting": "[2]", "value": "minimal interaction"}]}, {"smiles": "NC(=O)c1cc(N2CC2)c([N+](=O)[O-])cc1[N+](=O)[O-]", "note": "[CB1954]", "values": [{"measurement": "cell number versus control cells", "setting": "[8]; NTR targeted to the dazl locus, FIG. 5", "value": "reduction in cell number in comparison to the control cells"}, {"measurement": "PGC survival on exposure to pro-drug", "setting": "[8]; PGCs containing the targeted nitroreductase gene", "value": "died"}]}]}
